BigSolDB 2.1

CC(C)(C)NC[C@H](O)COc1nsnc1N1CCOCC1.O=C(O)/C=C\C(=O)O
Conditions | solubility (mole fraction)
in 2-methyltetrahydrofuran, 293.2 K | 0.0001
in 2-methyltetrahydrofuran, 303.2 K | 0.00017
in 2-methyltetrahydrofuran, 313.2 K | 0.00038
in 2-methyltetrahydrofuran, 323.2 K | 0.00067
in 2-methyltetrahydrofuran, 333.2 K | 0.0013
in acetone, 281.1 K | 0.00048
in acetone, 288.3 K | 0.00056
in acetone, 292.8 K | 0.00065
in acetone, 301.9 K | 0.00089
in acetone, 313.3 K | 0.00121
in acetone, 323.1 K | 0.00166
in cyrene, 284 K | 0.00047
in cyrene, 286.1 K | 0.00054
in cyrene, 289.8 K | 0.00075
in cyrene, 292.4 K | 0.001
in cyrene, 301.1 K | 0.00146
in cyrene, 312.2 K | 0.0023
in cyrene, 323.7 K | 0.00379
in cyrene, 332 K | 0.0055
in dimethyl isosorbide, 282.6 K | 0.00022
in dimethyl isosorbide, 289.1 K | 0.00034
in dimethyl isosorbide, 297.5 K | 0.00052
in dimethyl isosorbide, 309.7 K | 0.00072
in dimethyl isosorbide, 325.9 K | 0.00117
in dimethyl isosorbide, 330.9 K | 0.00151
in ethanol, 280.1 K | 0.00105
in ethanol, 285 K | 0.0012
in ethanol, 290.8 K | 0.00145
in ethanol, 302.3 K | 0.00217
in ethanol, 312.8 K | 0.00319
in ethanol, 322.7 K | 0.00471
in ethanol, 329.8 K | 0.00648
in isopropanol, 279.5 K | 0.00013
in isopropanol, 282.9 K | 0.00014
in isopropanol, 290.9 K | 0.00018
in isopropanol, 293.6 K | 0.00025
in isopropanol, 298.8 K | 0.00037
in isopropanol, 313.7 K | 0.0006
in isopropanol, 321.7 K | 0.00097
in isopropanol, 330.1 K | 0.00143
in n-butanol, 278.3 K | 0.00028
in n-butanol, 281.7 K | 0.00034
in n-butanol, 284.8 K | 0.00038
in n-butanol, 289.6 K | 0.00049
in n-butanol, 303.2 K | 0.00075
in n-butanol, 305.1 K | 0.00087
in n-butanol, 309.1 K | 0.00102
in n-butanol, 316.3 K | 0.00144
in n-butanol, 321.4 K | 0.00178
in n-butanol, 328.7 K | 0.00251
in water, 286 K | 0.00245
in water, 293.1 K | 0.00277
in water, 300.5 K | 0.00319
in water, 305 K | 0.00352
in water, 313.9 K | 0.00449
in water, 320.8 K | 0.00572
in water, 325.8 K | 0.00694
in water, 327.2 K | 0.0074
